These results are taken from ChEMBL document CHEMBL1155582, “Bioactive constituents of Thuja occidentalis” (J Nat Prod, 2000).

Assay [1] concerns the target T1, Ornithine decarboxylase (Mus musculus) (UniProt P00860).
T1 sequence (whole entry): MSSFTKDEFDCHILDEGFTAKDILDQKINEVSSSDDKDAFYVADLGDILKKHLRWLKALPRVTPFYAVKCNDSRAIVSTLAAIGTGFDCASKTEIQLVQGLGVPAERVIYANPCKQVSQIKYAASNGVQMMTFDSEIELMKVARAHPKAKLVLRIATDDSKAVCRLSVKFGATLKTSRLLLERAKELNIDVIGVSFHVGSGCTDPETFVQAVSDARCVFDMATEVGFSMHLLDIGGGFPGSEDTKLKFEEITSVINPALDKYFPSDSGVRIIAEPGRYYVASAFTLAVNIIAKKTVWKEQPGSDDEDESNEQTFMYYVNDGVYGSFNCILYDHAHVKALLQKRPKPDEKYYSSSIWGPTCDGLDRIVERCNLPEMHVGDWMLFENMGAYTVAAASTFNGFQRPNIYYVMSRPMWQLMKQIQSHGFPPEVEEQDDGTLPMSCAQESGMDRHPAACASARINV
Kind of assay: Inhibition of 12-O-tetradecanoylphorbol 13-acetate-induced ornithine decarboxylase activity in mouse ME308 cells. Type of assay: cell-based.

The test system of the next assay is KB. Kind of assay: Cytotoxicity against human KB cells. Type of assay: functional, cell-based.
Assay [2] is described as follows: (§1) Cytotoxicity against mouse JB6 cells by trypan blue exclusion test. In kind it is functional, cell-based.
Assay [3] can be described thus: Inhibition of 12-O-tetradecanoylphorbol 13-acetate-induced transformation of mouse JB6 cells after 14 days by soft agar transformation assay. In kind it is functional.
The test system of another assay is JB6. The assay is described as §1. In kind it is functional, cell-based.

SMILES strings stand for the structures. Calls of active or inactive are those of the source. No cut-off for these calls is given here.

Regarding `C=C[C@@]1(C)CCC2=C(C1)C(=O)C[C@H]1[C@](C)(C(=O)O)CCC[C@]21C`, the values for the Activity in assay [1] and in assay [3] were 0.98 µM and 12.6 µM, respectively. Moreover, the IC50 (in the assay with KB; in assay [2]) was over 60 µM throughout.
As for `COc1cc(C[C@H]2C(=O)OC[C@@H]2Cc2ccc3c(c2)OCO3)cc(OC)c1OC`, the results for the Activity in assay [1] and in assay [3] were 6.5 µM and 3.75 µM, respectively. The result in the assay with JB6 was Active.
For `C=C[C@]1(C)C=C2C(=O)C[C@@H]3[C@](C)(CCC[C@@]3(C)C(=O)O)[C@H]2CC1`, the Activity in assay [1] was found to be 0.5 µM; in assay [3], 11.7 µM. Also, the IC50 (with KB; in assay [2]) was over 60 µM in each case.
On to `COc1cc([C@@H]2c3cc4c(cc3C[C@H]3COC(=O)[C@@H]32)OCO4)cc(OC)c1OC` [DESOXYPODOPHYLLOTOXIN], for which the Activity in assay [1] is under 0.08 µM; in assay [3] it was 0.004 µM. Also, the result in the assay on JB6 was Active.
As for `COc1cc([C@H]2c3cc4c(cc3C[C@H]3COC(=O)[C@H]32)OCO4)cc(OC)c1OC` [ISOPICRODEOXYPODOPHYLLOTOXIN], the Activity turned out to be 0.55 µM in assay [1] and 0.18 µM in assay [3]. In addition, the result in the assay with JB6 was Active.
As to `C=C[C@@]1(C)CC[C@H]2C(=CC[C@@H]3[C@]2(C)CCC[C@@]3(C)C(=O)O)C1` [ISOPIMARIC ACID], the values for the Activity in assay [1] and in assay [3] were 0.86 µM and 13.2 µM, respectively. Further, the IC50 (in the assay with KB; in assay [2]) was over 60 µM throughout.
On to `CC1=C(/C=C/C(C)=C/C=C/C(C)=C\C(=O)O)C(C)(C)CCC1` [ISOTRETINOIN], for which the Activity in assay [1] came to 0.6 µM; in assay [3] it was 0.021 µM.
